Tests used:
[1] = test system: plasmin-mediated fibrinolysis of human fibrin clots; assay: Fibrinolysis of 125I-fibrin human plasma clots with tPA, EACA vs Pi; format: biochemical; conditions: tPA 5 nM, 2.5 h
[2] = target: plasmin-mediated cleavage of factor V (Homo sapiens, UniProt P00747); assay: Factor V cleavage by plasmin, SDS-PAGE; format: biochemical; conditions: EACA 1 mM or Pi 5 ug, 1 hr RT
Protocol: FIGS. 4A-4D show comparative inhibition of factor V cleavage and human clot fibrinolysis (dissolution) by Pi, EACA and a2AP. […] The relative migration of molecular weight standards is shown (kDa). […] Human plasma was clotted with CaCl2 (10 mM) and thrombin (1 U/ml) in the presence of trace amounts of 1251 fibrinogen for 1 h at 37 deg. C. After washing in 1 ml of TBS pH 7.4, tPA (5 nM) was added in the presence of various amounts of Pi (62.5 to 1000 nM), EACA (0.125 mM to 2 mM) or no inhibitor. After 2.5 h the amount of fibrinolysis was determined by measuring the amount of 125I-fibrin dissolved in the supernatant. Means of duplicate observations are shown. […] Clots were formed as above in the presence of human plasminogen (2 uM) and a2AP (1 uM) or Pi (1 uM) and various amounts of tPA (0-10 nM). Clot dissolution was monitored in duplicate over 2 h in microtiter plate wells at A405 nm. […] Human plasma clots were mixed with various concentrations of Pi IgG, Pi Fab and chimeric Pi Fab (25 nM-400 nM) and plasmin was activated by urokinase. The amount of clot lysis was determined as described in Methods.
Factor V cleavage. Human factor V (2 ug, IHFV, Innovative Research) was mixed with plasmin (0.05 ug) for 1 hr at RT in the presence of EACA (1 mM), Pi (5 ug) or a control monoclonal antibody (digoxin, 5 ug). […] Protein bands were detected by staining with Coomassie blue dye.

[3] = test system: fibrinolytic bleeding; assay: Fibrinolytic bleeding assay in vivo (humanized tail bleeding model); set-up: species or system mice; conditions: EACA 510 micromole/kg intravenously
Protocol: Anesthetized mice were treated in a randomized, blinded fashion with saline (Control), Pi (100 nmole/kg) or EACA (510 micromole/kg) intravenously. Human plasminogen (100 nmole/kg) and plasminogen activator (80,000 IU/kg) were given over 60 min. Tail bleeding was initiated 40 min. after the infusion. Tails were pre-warmed for 5 mins in 3 mL of 37° C. saline and bleeding was monitored as described.36,37 N=5-6, Means±SE are shown. *p<0.05, **p<0.01; ns, not significant. Kruskal Wallis one way ANOVA, Dunn's corrections.
Fibrinolytic bleeding assays in vivo. Anesthetized mice were treated in a randomized, blinded fashion with saline (Control), Pi (100 nmole/kg) or EACA (510 micromole/kg). Human plasminogen (100 nmole/kg) and plasminogen activator (80,000 IU/kg) were given over 60 min. Tail bleeding started 40 min. after the infusion. Tails were pre-warmed for 5 mins in 3 mL of 37° C. saline as described.(27, 28).
Suppression of fibrinolytic bleeding in vivo. The potential utility of the Pi for suppression of fibrinolytic bleeding was examined in vivo in randomized, blinded studies of surgical arterial and venous hemorrhage.

[4] = in vivo; cited from earlier work
[5] = test system: human plasma clots; assay: Clot lysis assay of Pi IgG, Fab and chimeric Fab, urokinase; format: biochemical; conditions: 25 nM-400 nM, 30 min
Protocol: FIGS. 4A-4D show comparative inhibition of factor V cleavage and human clot fibrinolysis (dissolution) by Pi, EACA and a2AP. […] The relative migration of molecular weight standards is shown (kDa). […] Human plasma was clotted with CaCl2 (10 mM) and thrombin (1 U/ml) in the presence of trace amounts of 1251 fibrinogen for 1 h at 37 deg. C. After washing in 1 ml of TBS pH 7.4, tPA (5 nM) was added in the presence of various amounts of Pi (62.5 to 1000 nM), EACA (0.125 mM to 2 mM) or no inhibitor. After 2.5 h the amount of fibrinolysis was determined by measuring the amount of 125I-fibrin dissolved in the supernatant. Means of duplicate observations are shown. […] Clots were formed as above in the presence of human plasminogen (2 uM) and a2AP (1 uM) or Pi (1 uM) and various amounts of tPA (0-10 nM). Clot dissolution was monitored in duplicate over 2 h in microtiter plate wells at A405 nm. […] The amount of clot lysis was determined as described in Methods.
The effects of Pi IgG, Fab or chimeric Fab were also compared in a clot lysis assay in microtiter plates. […] C. was monitored at 405 nm. The percent clot dissolution at 30 min. was determined as the percent change in peak turbidity from baseline=100%×(peak absorbance−30 min. absorbance)/(peak absorbance−baseline absorbance).

[6] = target: Plasmin (Homo sapiens, UniProt P00747); assay: Effect of mouse or chimeric Fab on plasmin activity, S2251; format: biochemical; conditions: plasmin 25 nM, Fab 0-200 nM, S2251 0.5 mM
Plasmin, sequence (P00747 97-580 limits assumed): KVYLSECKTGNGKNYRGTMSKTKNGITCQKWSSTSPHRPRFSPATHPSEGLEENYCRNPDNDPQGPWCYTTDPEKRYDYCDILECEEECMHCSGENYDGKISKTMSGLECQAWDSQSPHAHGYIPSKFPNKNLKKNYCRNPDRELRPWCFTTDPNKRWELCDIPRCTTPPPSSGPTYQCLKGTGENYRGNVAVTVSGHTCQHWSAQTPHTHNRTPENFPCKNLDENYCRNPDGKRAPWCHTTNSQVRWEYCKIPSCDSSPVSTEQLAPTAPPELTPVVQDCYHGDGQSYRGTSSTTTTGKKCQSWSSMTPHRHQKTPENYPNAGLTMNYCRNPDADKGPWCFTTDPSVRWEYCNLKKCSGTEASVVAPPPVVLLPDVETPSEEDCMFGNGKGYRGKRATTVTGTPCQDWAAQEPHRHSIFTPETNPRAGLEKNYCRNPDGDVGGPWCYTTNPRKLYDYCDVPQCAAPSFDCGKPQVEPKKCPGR
Plasmin, sequence (P00747 581-810 limits assumed): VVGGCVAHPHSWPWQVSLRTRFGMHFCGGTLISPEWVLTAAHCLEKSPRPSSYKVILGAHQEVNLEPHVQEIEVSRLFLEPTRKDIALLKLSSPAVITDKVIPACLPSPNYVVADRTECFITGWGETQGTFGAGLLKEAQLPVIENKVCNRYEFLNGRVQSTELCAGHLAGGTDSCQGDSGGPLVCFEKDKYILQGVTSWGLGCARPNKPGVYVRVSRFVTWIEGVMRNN
Protocol: FIGS. 2A-2D show comparative inhibition of plasmin activity by Pi EACA and a2AP. […] The percent residual activity of plasmin as a function of the log concentration of inhibitor is shown. […] Human plasmin (100 nM, Hematologic Technologies, Inc.) was mixed with or without Pi (50 nM) in the presence of the substrate S2251 (0.1 to 4 mM). The initial rate of substrate cleavage (6 min.) was monitored at A405. Data were plotted and analyzed using Michaelis-Menten kinetics by the Graphpad Prism Program. Means (duplicate observations) are shown and are representative of 4 separate experiments. […] The means of duplicate observations are shown. […] Plasmin (25 nM) was mixed with various concentrations (0-200 nM) of mouse Fab or chimeric Fab (cFab) and S2251 (0.5 mM) in TBS buffer pH 7.4. Plasmin activity was measured by the release of paranitroanilide product at A405 over time.
The effects of mouse or chimeric Fab on plasmin activity were examined. Plasmin (25 nM) was mixed with various concentrations (0-200 nM) of mouse Fab or chimeric Fab (cFab) and S2251 (0.5 mM) in TBS buffer pH 7.4. Plasmin activity was measured by the release of paranitroanilide product at A405 over time.

plasmin-mediated cleavage of factor V, sequence (P00747 97-580 limits assumed): as the sequence (P00747 97-580 limits assumed) above
plasmin-mediated cleavage of factor V, sequence (P00747 581-810 limits assumed): as the sequence (P00747 581-810 limits assumed) above

## NCCCCCC(=O)O [EACA, epsilon amino caproic acid, reference compound]
[1]
  fold less potent than the Pi in suppressing fibrinolysis: approximately 5,000 fold
[1]; Pi 62.5 to 1000 nM, EACA 0.125 mM to 2 mM
  effect on fibrinolysis of human fibrin clots: diminished fibrinolysis
[2]
  effect on Factor V cleavage by plasmin: slightly diminished Factor V cleavage
[3]
  effect on bleeding time vs saline: did not reduce bleeding time or blood loss
  effect on blood loss vs saline: did not reduce bleeding time or blood loss

## NC[C@H]1CC[C@H](C(=O)O)CC1 [Tranexamic acid, tranexamic acid]
[4]
  excreted via the urine unchanged: 95%

B1: mouse Fab: Fab fragment of the Pi lacking the Fc domain (antibody, V domains shown)
VH: EVKLLESGGGLVQPGGSLKLSCAASGFDFSRYWMSWVRQAPGKGLEWIGEINPDSSTINYTPSLKDKFIISRDNAKNSLYLQMSKVRSEDTALYYCASYCGYSYDALDCWGQGTSVTVSS
VL: DIQMTQSPSSLSASLGGKVSITCKASQDINKYISWYQHKPGKGPRLLIHYTSTLQPGIPSRFSGSGSGRDYSFSISNLEPEDIATYYCLQYDNLYTFGGGTKLEIK
[5]
  inhibition of clot lysis by Pi molecular forms: effectively inhibited clot lysis
[6]
  inhibition of plasmin activity with tripeptide substrate: potently inhibited plasmin activity

— US11066482B2, “Specific plasmin inactivation by anticatalytic antibody” (priority 2017, dated 2021)
